# According to patent US7132441B2, “Immunosuppressive effects of administration of a cyclooxygenase-2 inhibitor and a 5-lipoxygenase inhibitor” (G.D. Searle & Co., priority 1996, dated 2006):
# System: B10.Br mouse tailskin grafted on male C57BL/10 mice
# Assay: Skin graft rejection time (transplantation and evaluation of graft rejection)
# Assay type: in vivo
# Conditions: i.p. from day of grafting until rejection, Example 2 30 mpk/day q.d., Example 3 10 mpk/day q.d.; for Skin Graft Rejection Time, Ex. #1 Rejection: experiment #1; for Skin Graft Rejection Time, Ex. #3 Rejection: experiment #3
# Source text: Transplantation and Evaluation of Graft Resection
# The method of skin grafting used has been previously described [D. Steinmuller, Skin Grafting. Surgical Techniques in Immunology, Methods Enzymol. […] Briefly, a tailskin from an 8–12 week old male B10.Br mouse was removed and stored in cold saline. Male C57BL/10 mice were anesthetized, and their backs were shaved. The backs were scrubbed with alcohol, and a 1 cm^2 piece of skin was removed. A similar size piece of skin was cut from the tailskin of the B10.Br mouse and placed in the excised area on the C57BL/10 animal's back. A petroleum jelly coated bandage was placed over the graft and held in place by a single surgical staple. Compounds were prepared as a suspension in 0.5% methylcellulose (Sigma, St. Louis, Mo.), and 0.025% Tween® 20 (Sigma). The compounds were administered by i.p. injection in a volume of 0.1 ml beginning on the day of skin grafting and continuing until transplant rejection. […] Compounds were administered alone or as combinations of a COX-2 and 5-LO inhibitor. Bandages were left in place until 8 days post grafting. At that time they were removed, and the grafts were observed daily or signs of rejection. Rejection was determined by complete blackening or scabbing of the grafted skin.
Structure (SMILES),"Skin Graft Rejection Time, Ex. #1 Rejection","Skin Graft Rejection Time, Ex. #3 Rejection"
"CC(C#Cc1ccc(Oc2ccc(F)cc2)o1)N(O)C(N)=O (stereo not shown) [Example 3, N′-[3-[5-(4-Fluorophenoxy)furyl-2-yl]-1-methyl-2-propynyl]-N′-hydroxyurea]",15.0 days,17.0 days
"COc1ccc(-c2cc(C(F)F)nn2-c2ccc(S(N)(=O)=O)cc2)cc1F [Example 2, 4-[5-(3-Fluoro-4-methoxyphenyl)-3-(difluoromethyl)-1H-pyrazol-1-yl]benzenesulfonamide]",15.7 days,17.3 days
